The target in the first experiment is T1, EHMT2 (Homo sapiens, UniProt Q96KQ7).
T1 construct: host or cells: MDA-MB-231
T1 sequence (Q96KQ7 1-1210): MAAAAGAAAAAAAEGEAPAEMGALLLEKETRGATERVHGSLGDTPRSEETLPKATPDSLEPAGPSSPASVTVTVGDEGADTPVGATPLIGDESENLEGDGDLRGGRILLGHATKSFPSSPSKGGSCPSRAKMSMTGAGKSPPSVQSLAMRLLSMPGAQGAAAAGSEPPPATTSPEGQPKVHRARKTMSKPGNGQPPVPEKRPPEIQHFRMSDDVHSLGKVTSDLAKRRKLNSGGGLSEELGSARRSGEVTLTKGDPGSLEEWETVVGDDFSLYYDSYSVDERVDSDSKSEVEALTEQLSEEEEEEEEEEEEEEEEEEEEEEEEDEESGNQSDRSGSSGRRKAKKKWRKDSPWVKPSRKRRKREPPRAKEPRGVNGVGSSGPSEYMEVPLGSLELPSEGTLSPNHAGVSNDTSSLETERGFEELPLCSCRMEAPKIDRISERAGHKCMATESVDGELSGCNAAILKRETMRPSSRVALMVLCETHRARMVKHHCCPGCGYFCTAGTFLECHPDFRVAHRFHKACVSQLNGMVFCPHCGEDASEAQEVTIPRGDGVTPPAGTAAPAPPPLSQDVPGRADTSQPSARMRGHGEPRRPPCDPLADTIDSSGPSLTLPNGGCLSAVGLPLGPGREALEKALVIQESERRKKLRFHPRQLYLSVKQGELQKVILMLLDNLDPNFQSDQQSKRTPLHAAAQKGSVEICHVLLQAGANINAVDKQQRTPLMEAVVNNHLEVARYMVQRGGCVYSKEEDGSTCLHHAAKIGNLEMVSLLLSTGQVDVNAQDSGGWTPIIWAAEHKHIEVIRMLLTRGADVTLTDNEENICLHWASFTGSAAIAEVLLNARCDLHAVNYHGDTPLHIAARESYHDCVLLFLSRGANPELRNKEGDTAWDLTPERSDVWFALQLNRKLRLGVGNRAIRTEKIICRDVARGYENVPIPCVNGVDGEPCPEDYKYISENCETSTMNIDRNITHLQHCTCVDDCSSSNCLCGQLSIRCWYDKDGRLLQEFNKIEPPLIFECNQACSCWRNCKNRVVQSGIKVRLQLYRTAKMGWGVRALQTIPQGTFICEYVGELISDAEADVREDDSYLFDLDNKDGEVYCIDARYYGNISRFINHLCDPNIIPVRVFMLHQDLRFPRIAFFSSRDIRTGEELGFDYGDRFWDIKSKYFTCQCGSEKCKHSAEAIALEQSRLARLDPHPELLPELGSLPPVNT
Nature of the experiment: MDA-MB-231 H3K9me2 in-cell Western assay (EHMT2 ICW). It counts as cell-based. Particulars: H3K9me2 in-cell Western, MDA-MB-231 cells; read-out: EHMT2 ICW (IC50 μM). In outline:
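Cellular dimethyl-H3K9 is quantified by in-cell Western in MDA-MB-231 cells treated with compound for 48 h. The H3K9me2 signal at 800 nm is normalised to DRAQ5 nuclear stain at 700 nm. IC50 is calculated from triplicate concentration points by nonlinear regression.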
One may read the IC50 as the concentration at which inhibition is half-maximal. For `CNc1cc(C)nc(Nc2cc(Cl)c(OC)c(OCCCN3CCCC3)c2)n1` [Compound 496], the half-maximal inhibitory concentration (IC50) lay in the range of 1 to 10 µM. Turning to `CNc1cc(C)nc(Nc2ccc(OC)c(OC[C@H]3CCN(C4CC4)C3)c2)n1` (single isomer, unassigned) [Compound 482], the IC50 was in the range of 1 to 10 µM. The same measure, in the same setting: the result for `COc1ccc(Nc2nc(C)cc3[nH]ccc23)cc1OCCCN1CCCC1` [Compound 486] reads over 10 µM. On the same count and under the same terms, in the case of `CCCCNc1nccc(NC)n1` [Compound 543, N^2-butyl-N^4-methylpyrimidine-2,4-diamine] it was over 10 µM. On to `CNc1cc(C)nc(Nc2ccc(OC)c(OC[C@H]3C[C@@H](N(C)C)C3)c2)n1` [Compound 468], for which the IC50 was in the range of 1 to 10 µM.

With `CCn1nc(Nc2nccc3[nH]ccc23)cc1COCCN1CCCC1` [Compound 471], the IC50 is over 10 µM.

Regarding `COc1cnc(Nc2nccc3[nH]ccc23)cc1OCCCN1CC2CC2C1` (centres unmarked) [Compound 507], the concentration for half-maximal inhibition (IC50) was in the range of 0.1 to 1 µM. Same read-out and setting: the result for `CNc1cc(C)nc(Nc2ccc(OC)c(OCC3CCN(CCO)C3)c2)n1` (centres unmarked) [Compound 461, 2-(3-((2-methoxy-5-((4-methyl-6-(methylamino)pyrimidin-2-yl)amino)phenoxy)methyl)pyrrolidin-1-yl)ethan-1-ol] reads 0.1 to 1 µM. The same measure, in the same setting: the result for `CNc1cc(C)nc(Nc2cc(OC[C@@H]3CCN(C)C3)c(OC)cn2)c1` [Compound 475] reads 0.1 to 1 µM; that for `CNc1ccnc(Nc2ccc(OC)c(OCCOC3CC3)c2)n1` [Compound 453, N^2-(3-(2-cyclopropoxyethoxy)-4-methoxyphenyl)-N^4-methylpyrimidine-2,4-diamine], over 10 µM. On the same count and under the same terms, the result for `CNc1cc(C)nc(Nc2ccc(OC)c(OCCCN3CCC4(CC4)C3)c2)n1` [Compound 498, N^2-(3-(3-(5-azaspiro[2.4]heptan-5-yl)propoxy)-4-methoxyphenyl)-N^4,6-dimethylpyrimidine-2,4-diamine] reads 1 to 10 µM; that for `COc1cnc(Nc2nc(C)cc3[nH]ccc23)cc1OCC1CCN(C2CC2)C1` (centres unmarked) [Compound 494], under 0.1 µM.

As for `CNc1cc(C)nc(Nc2ccc(OC)c(OC(C#N)CCN3CCCC3)c2)n1` (centres unmarked) [Compound 489], the IC50 fell in the range of 1 to 10 µM. Regarding `CNc1cc(C)nc(Nc2ccc(OC)c(OCC3CN(C4CC4)C3)c2)n1` [Compound 510], the IC50 is 0.1 to 1 µM. Turning to `COc1cc2c(C3CCN(C)CC3)nc(N3CCC(F)(F)CC3)nc2cc1OCCCN1CCCC1` [Compound 528], the IC50 was in the range of 1 to 10 µM. On the same count and under the same terms, the result for `CCc1ncc(Nc2nc(C)cc(NC)n2)cc1OCCCN1CCCC1` [Compound 515] reads 1 to 10 µM. Regarding `CNc1cc(C)nc(Nc2cnc(C3CC3)c(OCCCN3CCCC3)c2)n1` [Compound 516], the IC50 lay in the range of 1 to 10 µM.

For `CNc1ccnc(Nc2ccc(OC)c(OCc3nnc(C4CC4)[nH]3)c2)n1` [Compound 478], the IC50 is over 10 µM.

Turning to `CNc1ccnc(Nc2ccc(OC)c(OCc3ncn(C4CC4)n3)c2)n1` [Compound 480], the IC50 was over 10 µM. The same measure, in the same setting: the result for `CNc1cc(C)nc(Nc2ccc(OC)c([C@H]3C[C@@H]3CN(C)C)c2)n1` [Compound 487] reads 1 to 10 µM; that for `COc1ccc(Nc2nc(C)cc(NCC3CCOCC3)n2)cc1OCC1CCN(C2CC2)C1` (centres unmarked) [Compound 462, N^2-(3-((1-cyclopropylpyrrolidin-3-yl)methoxy)-4-methoxyphenyl)-6-methyl-N^4-((tetrahydro-2H-pyran-4-yl)methyl)pyrimidine-2,4-diamine], 0.1 to 1 µM. Consider `CNc1cc(C(C)C)nc(Nc2ccc(OC)c(OCCCN3CCCC3)c2)n1` [Compound 483], for which the IC50 lay in the range of 0.1 to 1 µM. Still for that read-out and setting: the result for `CNc1nc(C2CCCCC2)c2cc(OC)c(OCCCN3CCCC3)cc2n1` [Compound 523, 4-cyclohexyl-6-methoxy-N-methyl-7-(3-(pyrrolidin-1-yl)propoxy)quinazolin-2-amine] reads 1 to 10 µM.

Take `CNc1cc(C)nc(Nc2ccc(OC)c(OC[C@H]3C[C@H](N(C)C)C3)c2)n1` [Compound 470]: the IC50 was over 10 µM.

On to `CNc1cc(C)nc(Nc2ccc(OC)c(OCC3CCN(C4CC4)C3)c2)n1` (centres unmarked) [Compound 457], for which the IC50 was under 0.1 µM. The same measure, in the same setting: in the case of `CNc1cc(C)nc(Nc2ccc(OC)c(OCC3CCCN(C4CC4)C3)c2)n1` (centres unmarked) [Compound 517a] it was 0.1 to 1 µM; in that of `COc1cc2c(C3CCN(C)CC3)nc(NC3CCCC3)nc2cc1OCCCN1CCCC1` [Compound 529], 0.1 to 1 µM. Same read-out and setting: the result for `COc1cnc(Nc2nc(C)cc3[nH]c(C)cc23)cc1OCCCN1CCCC1` [Compound 485] reads 0.1 to 1 µM; that for `CNc1cc(C)nc(Nc2ccc(OC)c(OC3CCN(C)CC3)c2)n1` [Compound 455], over 10 µM; that for `CNc1cc(Nc2cc(OC[C@@H]3CCN(C)C3)c(OC)cn2)nc(C)n1` [Compound 473], 1 to 10 µM. Still for that read-out and setting: in the case of `CNc1cc(C)nc(Nc2ccc(OC)c(OC[C@H]3CCCN(C4CC4)C3)c2)n1` [Compound 517b] it was 0.1 to 1 µM; in that of `CNc1cc(C)nc(Nc2ccc(OC)c(OCCCCN(C)C)c2)n1` [Compound 502], 1 to 10 µM; in that of `CNc1cc(C)nc(Nc2ccc(OC)c(OC[C@@H]3CCN(C4CC4)C3)c2)n1` (single isomer, unassigned) [Compound 481], under 0.1 µM.

For `COc1cnc(Nc2nc(C)cc3[nH]ncc23)cc1OCCCN1CCCC1` [Compound 460, N-(5-methoxy-4-(3-(pyrrolidin-1-yl)propoxy)pyridine-2-yl)-6-methyl-1H-pyrazolo[4,3-c]pyridine-4-amine], the IC50 lay in the range of 0.1 to 1 µM.

On to `CNc1nc(C2CCN(C)CC2)c2cc(OC)c(OCCCN3CC4CC4C3)cc2n1` (centres unmarked) [Compound 532], for which the IC50 was in the range of 0.1 to 1 µM. For `CNc1cc(C)nc(Nc2cnc(OC)c(OC[C@@H]3CCN(C4CC4)C3)c2)n1` [Compound 512], the IC50 was under 0.1 µM. `COc1cnc(Nc2cc(NCC3CCOCC3)cc(C)n2)cc1OCCCN1CCCC1` [Compound 464, N^2-(5-methoxy-4-(3-(pyrrolidin-1-yl)propoxy)pyridin-2-yl)-6-methyl-N^4-((tetrahydro-2H-pyran-4-yl)methyl)pyridine-2,4-diamine]: the IC50 lay in the range of 1 to 10 µM.

For `CNc1cc(C)nc(Nc2ccc(OC)c(OCCCN3CC4CC4C3)c2)n1` (centres unmarked) [Compound 506], the IC50 lay in the range of 0.1 to 1 µM. As to `CNc1cc(Nc2cc(OCCCN3CC4CC4C3)c(OC)cn2)nc(C)c1F` (centres unmarked) [Compound 509], the concentration for half-maximal inhibition (IC50) fell in the range of 0.1 to 1 µM.

For `CNc1cc(C)nc(Nc2ccc(OC)c(OCCC3CN(C)C3)c2)n1` [Compound 508], the IC50 was over 10 µM. Still for that read-out and setting: in the case of `CNc1nc(C2CCNCC2)c2cc(OC)c(OCCCN3CCCC3)cc2n1` [Compound 520] it was 1 to 10 µM; in that of `CNc1cc(C)nc(Nc2cnc(OC)c(OCCCN3CC4CC4C3)c2)n1` (centres unmarked) [Compound 514], 0.1 to 1 µM; in that of `COc1cnc(Nc2nc(C)cc3[nH]ccc23)cc1OC[C@H]1CCN(C2CC2)C1` [Compound 494a], 0.1 to 1 µM. The same measure, in the same setting: in the case of `CNc1cc(C2CCN(C)CC2)c2cc(OC)c(OCCCN3CCCC3)cc2n1` [Compound 535] it was under 0.1 µM; in that of `CNc1nc(C2CC(C)(C)NC(C)(C)C2)c2cc(OC)c(OCCCN3CCCC3)cc2n1` [Compound 534], over 10 µM; in that of `CNc1cc(C)nc(Nc2ccc(OC)c(OC[C@@H]3CN(C)C[C@@H]3O)c2)n1` [Compound 492], 0.1 to 1 µM.

The experiment is the same for the next values; noted with them: Table VII; read-out: EHMT2 ICW IC50.
Regarding `CNc1cc(C)nc(Nc2ccc(OC)c(CNCCNC3CCC3)c2)n1` [Compound 1109], the IC50 lay within 1 to 10 µM. With `CNc1cc(C2CCOCC2)c2cc(OC)c(OC[C@H](O)CN3CCC3)cc2n1` [Compound 1108], the IC50 lay within 0.1 to 1 µM. `CNc1cc(C)nc(Nc2ccc(OC)c(OC[C@@H](O)CN3CCCC3)c2)n1` [Compound 1044]: the IC50 lay in the range of 0.1 to 1 µM. For `CNc1ccnc(Nc2ccc(OC)c(OC[C@@H](O)CN3CCC3)c2)n1` [Compound 1046], the IC50 lay in the range of 1 to 10 µM. Consider `CNc1cc(C)nc(Nc2cnc(OC)c(CNCCN3CCC3)c2)n1` [Compound 1110], for which the IC50 lay within 0.1 to 1 µM. As for `CNc1cc(C)nc(Nc2ccc(OC)c(OC[C@H](O)CN(C)C)c2)n1` [Compound 1112], the IC50 lay within 1 to 10 µM. As to `CNc1cc(C2CCOCC2)c2cc(OC)c(CNCCN3CCCC3)cc2n1` [Compound 1111], the half-inhibitory concentration (IC50) fell in the range of 0.1 to 1 µM.

The values above are taken from patent publication US20210198277A1, “AMINE-SUBSTITUTED ARYL OR HETEROARYL COMPOUNDS” (Epizyme, Inc., priority 2016, published 2021).
